Assay [1] deals with Staphylococcus aureus. The assay can be described thus: Antimicrobial activity against Staphylococcus aureus ATCC 29213. The format is functional.
Assay [2] is described as follows: Selectivity ratio of IC50 for […] to IC50 for Staphylococcus aureus ATCC 29213 50S ribosomal subunit.
Assay [3] relates to Enterococcus faecalis. Kind of assay: Antimicrobial activity against linezolid-resistant Enterococcus faecalis P5. The format is functional.
Assay [4] has as its system Enterococcus faecalis. Kind of assay: Antimicrobial activity against Enterococcus faecalis ATCC 29212. In kind it is functional.
The target in assay [5] is Bacterial 70S ribosome. The assay can be described thus: Displacement of [3H]chloramphenicol from 70S ribosomal complex in Staphylococcus aureus ATCC 29213 by competitive binding assay. In general terms: In a radioligand displacement assay an active substance lowers the binding of a labelled ligand.
Assay [6] in a line: Inhibition of 50S ribosomal subunit purified from Staphylococcus aureus ATCC 29213 assessed as inhibition of translation using in vitro transcribed mRNA encoding firefly luciferase.
A short description of assay [7]: Inhibition of 50S ribosomal subunit purified from linezolid-,erythromycin-resistant Staphylococcus aureus A7820 with G2576U mutation in 23s rRNA assessed as inhibition of translation using in vitro transcribed mRNA encoding firefly luciferase.
Assay [8] relates to Staphylococcus aureus. The assay can be described thus: Antimicrobial activity against linezolid-,erythromycin-resistant Staphylococcus aureus A7820 with G2576U mutation at 23s rRNA. The format is functional.
In a further assay the test system is Enterococcus faecium. The assay can be described thus: Antimicrobial activity against linezolid-resistant Enterococcus faecium A6349 expressing VanA gene. In kind it is functional.
For assay [9], the target named is Bacterial 70S ribosome. Kind of assay: Displacement of [3H]puromycin from 70S ribosomal complex in Staphylococcus aureus ATCC 29213 by competitive binding assay.

≈ marks a conversion by molar mass, not a printed value. Bounds are passed on as bounds.

Usually MIC stands for the smallest concentration in the dilution series that meets the test's criterion for growth inhibition. Low readings indicate greater potency, high ones weaker potency. The IC50 is the midpoint of a concentration-inhibition curve. In the case of `O=C(N[C@H](CO)[C@H](O)c1ccc([N+](=O)[O-])cc1)C(Cl)Cl` [CHLORAMPHENICOL], the MIC in the assay on Staphylococcus aureus [1] was 8 µg/mL (≈ 24.8 µM); with Enterococcus faecalis [3] it was 32 µg/mL (≈ 99 µM); in the assay with Enterococcus faecalis [4], 8 µg/mL (≈ 24.8 µM); against Staphylococcus aureus [8] it was 64 µg/mL (≈ 198 µM); in the assay with Enterococcus faecium it was 24 µg/mL (≈ 74.3 µM). For the same compound, in assay [2], the ratio was 25. Also, the values for the half-inhibitory concentration (IC50) (at Bacterial 70S ribosome [5]; in assay [6]; in [7]) were 0.43 µM, 7.8 µM and 54 µM, respectively.
On to `CC(=O)NC[C@H]1CN(c2ccc(N3CCOCC3)c(F)c2)C(=O)O1` [LINEZOLID], for which the ratio in assay [2] was greater than 100. Besides, the MIC with Enterococcus faecalis [3] is 32 µg/mL (≈ 94.9 µM); in the assay with Staphylococcus aureus [8] it was 64 µg/mL (≈ 190 µM); with Enterococcus faecium it was 16 µg/mL (≈ 47.4 µM). Further, the 50% inhibitory concentration (IC50) was 1380 µM on Bacterial 70S ribosome [5], 0.9 µM in [6], 920 µM on Bacterial 70S ribosome [9] and 8.4 µM in assay [7].
Take `CC(=O)NC[C@H]1CN(c2ccc(-c3ccc(Cn4ncnn4)cc3)c(F)c2)C(=O)O1`: the minimum inhibitory concentration (MIC) against Staphylococcus aureus [1] is 0.5 µg/mL (≈ 1.22 µM); in the assay on Enterococcus faecalis [3] it was 1 µg/mL (≈ 2.44 µM); against Enterococcus faecalis [4] it was 0.25 µg/mL (≈ 0.609 µM); in the assay on Staphylococcus aureus [8], 1 µg/mL (≈ 2.44 µM); against Enterococcus faecium, 0.5 µg/mL (≈ 1.22 µM). Moreover, the ratio in assay [2] was found to be 23. Besides, in assay [6], the half-inhibitory concentration (IC50) was 0.06 µM.
On to `CC(=O)NC[C@H]1CN(c2ccc(-c3ccc(CNCc4cnn[nH]4)cc3)c(F)c2)C(=O)O1` [RADEZOLID], for which the MIC with Staphylococcus aureus [1] turned out to be 1 µg/mL (≈ 2.28 µM); against Enterococcus faecalis [3] it was 1 µg/mL (≈ 2.28 µM); in the assay on Enterococcus faecalis [4], 0.25 µg/mL (≈ 0.57 µM); in the assay with Staphylococcus aureus [8] it was 8 µg/mL (≈ 18.2 µM); against Enterococcus faecium, 0.5 µg/mL (≈ 1.14 µM). The ratio in assay [2] is greater than 100. Moreover, the IC50 in assay [6] was 0.02 µM; in [7] it was 0.03 µM.
Turning to `CC(=O)NC[C@H]1CN(c2ccc(-c3ccc(CN)cc3)c(F)c2)C(=O)O1`, the MIC against Staphylococcus aureus [1] came to 4 µg/mL (≈ 11.2 µM); in the assay with Enterococcus faecalis [3] it was 8 µg/mL (≈ 22.4 µM); in the assay with Enterococcus faecalis [4], 0.5 µg/mL (≈ 1.4 µM); against Staphylococcus aureus [8], 8 µg/mL (≈ 22.4 µM); against Enterococcus faecium, 1 µg/mL (≈ 2.8 µM). For the same compound, the ratio in [2] was greater than 100. Moreover, the IC50 on Bacterial 70S ribosome [5] is 58 µM; in assay [6], no more than 0.02 µM.
For the compound `CC(=O)NC[C@H]1CN(c2ccc(-c3ccc(CNCCCF)cc3)c(F)c2)C(=O)O1`, the minimal inhibitory concentration (MIC) came out at 1 µg/mL (≈ 2.4 µM) in the assay on Staphylococcus aureus [1]; 2 µg/mL (≈ 4.79 µM) against Enterococcus faecalis [3]; 0.5 µg/mL (≈ 1.2 µM) in the assay with Enterococcus faecalis [4]; 8 µg/mL (≈ 19.2 µM) against Staphylococcus aureus [8]; 1 µg/mL (≈ 2.4 µM) in the assay with Enterococcus faecium. Further, the ratio in assay [2] was greater than 100. Further, the 50% inhibitory concentration (IC50) was 45 µM at Bacterial 70S ribosome [5], no more than 0.02 µM in assay [6] and 0.06 µM in [7].
`COc1ccc(C[C@H](N)C(=O)N[C@H]2[C@@H](O)[C@H](n3cnc4c(N(C)C)ncnc43)O[C@@H]2CO)cc1` [PUROMYCIN] came in with an IC50 at Bacterial 70S ribosome [9] of 0.9 µM.
For the compound `CC(=O)NC[C@H]1CN(c2ccc(-c3ccc(CNCC(N)=O)cc3)c(F)c2)C(=O)O1`, the minimal inhibitory concentration (MIC) against Staphylococcus aureus [1] came out at 4 µg/mL (≈ 9.65 µM); against Enterococcus faecalis [3], 8 µg/mL (≈ 19.3 µM); with Enterococcus faecalis [4] it was 0.5 µg/mL (≈ 1.21 µM); against Staphylococcus aureus [8] it was 8 µg/mL (≈ 19.3 µM); in the assay with Enterococcus faecium, 1 µg/mL (≈ 2.41 µM). For the same compound, the ratio in [2] was greater than 50. In [6], the IC50 is no more than 0.02 µM.
As to `CS(=O)(=O)c1ccc([C@@H](O)[C@@H](CF)NC(=O)C(Cl)Cl)cc1` [FLORFENICOL], the MIC with Staphylococcus aureus [1] came to 8 µg/mL (≈ 22.3 µM); in the assay on Enterococcus faecalis [3], 16 µg/mL (≈ 44.7 µM); against Enterococcus faecalis [4], 4 µg/mL (≈ 11.2 µM); in the assay with Staphylococcus aureus [8], 64 µg/mL (≈ 179 µM); against Enterococcus faecium, 16 µg/mL (≈ 44.7 µM). The ratio in [2] is greater than 100. Also, the IC50 at Bacterial 70S ribosome [5] worked out at 20 µM; in [6], 0.7 µM; in assay [7], 16.4 µM.
In the case of `CC(=O)NC[C@H]1CN(c2ccc(-c3ccc(CNC(=N)N)cc3)c(F)c2)C(=O)O1`, the minimal inhibitory concentration (MIC) came out at 2 µg/mL (≈ 5.01 µM) in the assay on Staphylococcus aureus [1]; 8 µg/mL (≈ 20 µM) with Enterococcus faecalis [3]; 2 µg/mL (≈ 5.01 µM) with Enterococcus faecalis [4]; 8 µg/mL (≈ 20 µM) with Staphylococcus aureus [8]; 2 µg/mL (≈ 5.01 µM) against Enterococcus faecium. Also, in assay [2], the ratio was greater than 100. Further, the half-maximal inhibitory concentration (IC50) at Bacterial 70S ribosome [5] is 50 µM; in [6], no more than 0.02 µM; on Bacterial 70S ribosome [9], 8.7 µM; in [7] it was 0.08 µM.
For the compound `CSC[S@@+]([O-])CC(CO)NC(=O)/C=C/c1c(C)[nH]c(=O)[nH]c1=O` (some centres undefined) [SPARSOMYCIN], the ratio in assay [2] turned out to be 7. For the same compound, the IC50 in [6] was no more than 0.02 µM.
For `CC(=O)NC[C@H]1CN(c2ccc(-c3ccc(CNC(=O)/C=C/c4c(C)[nH]c(=O)[nH]c4=O)cc3)c(F)c2)C(=O)O1`, the MIC with Staphylococcus aureus [1] was 0.25 µg/mL (≈ 0.467 µM); against Enterococcus faecalis [3], 16 µg/mL (≈ 29.9 µM); against Enterococcus faecalis [4] it was 1 µg/mL (≈ 1.87 µM); with Staphylococcus aureus [8] it was 8 µg/mL (≈ 14.9 µM); with Enterococcus faecium, 1 µg/mL (≈ 1.87 µM). The ratio in assay [2] came out at 17. Further, the IC50 in assay [6] worked out at 0.09 µM; in assay [7], 0.03 µM.
As to `CC(=O)NC[C@H]1CN(c2ccc(-c3ccc(Cn4ccnn4)cc3)c(F)c2)C(=O)O1`, the minimal inhibitory concentration (MIC) against Staphylococcus aureus [1] was determined as 0.5 µg/mL (≈ 1.22 µM); against Enterococcus faecalis [3], 1 µg/mL (≈ 2.44 µM); in the assay on Enterococcus faecalis [4], 0.5 µg/mL (≈ 1.22 µM); in the assay with Staphylococcus aureus [8], 1 µg/mL (≈ 2.44 µM); in the assay on Enterococcus faecium, 1 µg/mL (≈ 2.44 µM). In addition, in assay [2], the ratio was greater than 100. Besides, the half-inhibitory concentration (IC50) in assay [6] was determined as 0.13 µM; in assay [7] it was 0.21 µM.
